Assay results reported in PMC12390684 (Viruses, 2025).

Molecular target: IN-GCN2 interaction (6xHis-IN / GST-GCN2) (UniProt P04585+Q9P2K8)
Experiment: biochemical
Type: binding, HIV-1 IN; human GCN2
Conditions: screen, single dose 100 µM, single replicate; residual AlphaLISA signal normalized to DMSO control

Chain of IN-GCN2 interaction (6xHis-IN / GST-GCN2) (Q9P2K8 192-1024, other chains not shown): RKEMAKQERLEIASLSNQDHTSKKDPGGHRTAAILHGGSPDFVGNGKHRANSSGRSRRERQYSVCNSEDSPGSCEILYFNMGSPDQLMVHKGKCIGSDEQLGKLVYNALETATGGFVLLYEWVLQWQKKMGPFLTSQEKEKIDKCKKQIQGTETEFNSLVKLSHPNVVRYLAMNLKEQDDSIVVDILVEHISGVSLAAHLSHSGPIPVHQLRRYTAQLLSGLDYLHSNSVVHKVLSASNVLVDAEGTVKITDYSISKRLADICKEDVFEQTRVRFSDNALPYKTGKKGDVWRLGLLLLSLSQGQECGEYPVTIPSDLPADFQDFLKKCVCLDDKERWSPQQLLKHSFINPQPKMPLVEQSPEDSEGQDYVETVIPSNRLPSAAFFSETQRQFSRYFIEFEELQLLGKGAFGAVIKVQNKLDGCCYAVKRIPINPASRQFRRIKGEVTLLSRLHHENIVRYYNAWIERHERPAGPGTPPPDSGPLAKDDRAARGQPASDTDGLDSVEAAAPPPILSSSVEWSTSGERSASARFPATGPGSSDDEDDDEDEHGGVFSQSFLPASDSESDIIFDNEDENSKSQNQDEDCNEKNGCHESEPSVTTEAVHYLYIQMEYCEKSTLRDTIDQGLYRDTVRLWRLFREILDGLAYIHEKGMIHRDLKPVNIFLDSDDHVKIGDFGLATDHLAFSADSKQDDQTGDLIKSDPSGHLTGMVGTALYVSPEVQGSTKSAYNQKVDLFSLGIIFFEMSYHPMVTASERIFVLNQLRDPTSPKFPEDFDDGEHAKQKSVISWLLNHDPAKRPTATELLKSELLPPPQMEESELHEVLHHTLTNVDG

SMILES	IN-GCN2 interaction (%)
CO[C@@H]1/C=C/O[C@@]2(C)Oc3c(C)c(O)c4c(c3C2=O)C(=N[C@@H]2CC[C@@H](O)O[C@H]2C)C=C(NC(=O)/C(C)=C\C(=O)[C@@H]2C[C@@H]2[C@H](O)[C@@H](C)[C@@H](O)[C@@H](C)[C@H](OC(C)=O)[C@@H]1C)C4=O [NSC177383]	103.89
C=C1C(=O)[C@]23[C@H](O)[C@H]1CC[C@H]2[C@@]12CO[C@]3(O)[C@@H](O)[C@@H]1C(C)(C)CC[C@@H]2O [NSC250682]	99.31
CO[C@@H](/C(C)=C/C=C/C(C)=C/c1coc(C)n1)[C@@H](C)[C@@H]1C[C@H](O)[C@@]2(C)O[C@@H]2/C=C/[C@@H](C)[C@H]2C[C@H](CC(=O)O2)C[C@@H]2O[C@H]2C(=O)O1 [NSC332598]	94.06
CO[C@@H]1C[C@](C)(O)Cc2cc3c(c(O)c21)C(=O)c1c(O)cc2c(c1C3=O)O[C@@H]1O[C@@]2(C)[C@H](O)[C@@H](N(C)C)[C@@H]1O [NSC269148]	113.29
COc1cc([C@@H]2c3cc4c(cc3C[C@H]3COC(=O)[C@@H]32)OCO4)cc(OC)c1OC [NSC403148]	91.16
CC1(C)CCC[C@]2(C)C3=C(CC[C@@H]12)C(=O)OC3 [NSC375294]	100.67
Cc1ccc(S(=O)(=O)NNC(=O)c2cc(C)c(C)cc2N)cc1 [NSC107453]	88.25
CC(=O)OC1C2(CC3N4C(=O)C5(CO)SSC4(CC31O)C(=O)N5C)OC(C)C(C)(C)C2=O (stereo not shown) [NSC294408]	104.55
Nc1ncnc2c1ncn2[C@@H]1C=C(CO)[C@@H](O)[C@H]1O [NSC316458]	111.58
O=C1C(O)=C(c2ccccc2)C(=O)C(O)=C1c1ccccc1 [NSC44175]	117.13
COc1cc2c(cc1OC)C(c1cc(OC)c(OC)c(OC)c1)C1(O)C(=O)OCC1(O)C2 (stereo not shown) [NSC50132]	86.33
C[C@]12CC[C@H](O)C[C@H]1CC[C@@H]1[C@@H]2CC[C@]2(C)[C@@H](C3=CC(=O)OC3)CC[C@]12O [NSC407806]	101.32
O=C(O)CC1OCC=C2CN3CCC45c6ccccc6NC4C1C2CC35 (stereo not shown) [NSC121860]	104.59
COc1cc([C@@H]2c3cc4c(c(O)c3C[C@H]3COC(=O)[C@@H]32)OCO4)cc(OC)c1OC [NSC24819]	89.45
C=C1C(=O)O[C@@H]2[C@H]1CC[C@H](C)[C@@H]1C=CC(=O)[C@@]21C [NSC85235]	40.36
CC[C@H](C)C(=O)O[C@H]1CCC=C2C=C[C@H](C)[C@H](CC[C@@H]3C[C@@H](O)CC(=O)O3)[C@H]21 [NSC281245]	54.75
O=C1NC(O)CCN1[C@@H]1O[C@H](CO)[C@@H](O)[C@H]1O (stereo partly shown) [NSC112907]	123.97
COc1c(OC)c2c3c(nccc3c1OC)C(=O)c1ccccc1-2 [NSC785149]	57.46
NC(Cc1cc(I)c(O)c(I)c1)C(=O)O (stereo not shown) [NSC4143]	75.41

SMILES	IN-GCN2 interaction (%)
CC1=C2[C@H]3OC(=O)[C@@H](C)[C@@H]3CC[C@@]2(C)C=C/C1=N\O [NSC42038]	112.40
CC[C@H]1OC(=O)[C@H](C)[C@@H](O[C@H]2C[C@@](C)(O)[C@@H](O)[C@H](C)O2)[C@H](C)[C@@H](O)[C@](C)(O)C[C@@H](C)C(=O)[C@H](C)[C@@H](O)[C@H]1C [NSC209870]	103.21
COC1C(=O)CCC2(CO2)C1(O)C1(C)OC1CC=C(C)C (stereo not shown) [NSC141538]	103.23
COc1ccc2c(c1OC)-c1cccc3c1[C@@H](C2)N(C)CC3 [NSC785153]	61.13
O=[N+]([O-])[O-].c1ccc2c(c1)[nH]c1c2cc[n+]2cc3c(cc12)CCCC3 [NSC21728]	107.16
CC(C)[C@H]1CC[C@@](C)(C(=O)O)C1 [NSC8973]	89.12
CC1=C2C(=CC(C)(C)[C@@H]2O)C(=O)[C@](C)(O)C12CC2 [NSC400978]	28.97
COc1cc2c3cc1Oc1c(O)c(OC)cc4c1[C@H](Cc1ccc(cc1)Oc1cc(ccc1O)C[C@H]3N(C)CC2)N(C)CC4 [NSC93674]	63.45
CC(=O)C(=O)N[C@@H]1/C=C(C)/C=C/[C@@H](O)C/C=C(C)/C=C/[C@@H](O)C[C@H]2OC(=O)[C@]1(C)C(=O)[C@@H]2C [NSC145118]	98.66
CCOC(=O)CCCCCCCCCCCCC1C=CCC1 (stereo not shown) [NSC38010]	104.59
CCCCCCCCCC[C@H](C(=O)O)[C@]1(C(=O)O)CCC(=O)O1 [NSC244387]	146.01
CC1(C)CCC2=C(O1)C(=O)c1ccccc1C2=O [NSC26327]	99.02
COc1cc2c(cc1O)[C@@H](Cc1ccc(Oc3cc(C[C@H]4c5cc(O)c(OC)cc5CCN4C)ccc3O)cc1)N(C)CC2 [NSC785184]	46.86
O=C(O)C1C2CC3OC(=O)C1C3C2 (stereo not shown) [NSC12444]	94.03
C=C1C(=O)O[C@H]2C[C@@]3(C)O[C@@H]3CC/C(C)=C/[C@@H](OC(C)=O)[C@H]12 [NSC22070]	135.82
COC(=O)/C(=C1/OC(=O)C(c2ccccc2)=C1O)c1ccccc1 [NSC5897]	95.33
COc1ccc2c3c([nH]c2c1)[C@H]1C[C@H]2[C@H](C[C@@H](O)[C@H](OC)[C@H]2C(=O)O)CN1CC3 [NSC81463]	97.85
C=C1C(=O)OCC2C(C(=O)O)=CC3C(C)C(C)=CC123 (stereo not shown) [NSC145150]	111.51
COc1cccc(C=O)c1O [NSC2150]	88.39

SMILES	IN-GCN2 interaction (%)
C=C1C(=O)O[C@@H]2C[C@@H](C)[C@@H]3C=CC(=O)[C@@]3(C)[C@@H](O)[C@H]12 [NSC85236]	117.15
COc1cc2c3c(c1OC)-c1cc4c(cc1C[C@@H]3N(C)CC2)OCO4 [NSC785161]	55.76
O=C1C=C([C@@H]2O[C@H](CO)[C@@H](O)[C@H]2O)C(=O)N1 [NSC93047]	117.57
COc1ccc(-c2cc(=O)c3ccc(O)cc3o2)cc1OC [NSC123383]	118.02
C[C@H]1O[C@H](OC2[C@@H](O)[C@@H](O)C(O)[C@H](O)[C@H]2O)[C@@H](N)C[C@@H]1N=C(N)C(=O)O (stereo partly shown) [NSC100858]	98.15
C[C@H](N)C(=O)N[C@@H]1[C@H]2C(=C(O)C[C@@H](O)[C@@H]2O)C(=O)O[C@]1(C)C(Cl)Cl [NSC325014]	94.06
COc1cc2c(cc1O)[C@@H](Cc1ccc(Oc3cc(C[C@H]4c5cc(O)c(OC)cc5CCN4C)ccc3OC)cc1)N(C)CC2 [NSC785183]	47.22
O=c1ccc2nc3ccc(O)cc3oc-2c1 [NSC12097]	169.88
CO[C@H]1/C=C\C=C(/C)C(=O)NC2=CC(=O)C(N)=C(C[C@@H](C)C[C@H](OC)[C@H](O)[C@@H](C)/C=C(\C)[C@@H]1OC(N)=O)C2=O [NSC255109]	108.78
COc1cc(C)c2c(c1C=O)Oc1c(c(C)c(O)c3c1C(O)OC3=O)OC2=O (stereo not shown) [NSC87511]	159.91
CCC1CN(C)C2Cc3c([nH]c4ccccc34)C(=O)CC1C2C(=O)OC (stereo not shown) [NSC108088]	78.52
CCOc1cc2c(cc1OC)CCN[C@H]2Cc1ccc(O)cc1 [NSC785185]	75.32
CC(=O)O[C@@H]1[C@@H](O)[C@H](O[C@H]2[C@H](OC(=O)[C@H]3CC[C@H]4[C@@H](C3)O[C@@]3(C[C@H](OC(=O)/C=C/c5ccccc5)[C@H](C)CO3)[C@]43CO3)O[C@H](C)[C@@H](O)[C@@H]2OC(C)=O)O[C@H](C)[C@H]1O [NSC328426]	91.16
CC(C)=CC(=O)O[C@H]1[C@H]2[C@H](OC(=O)[C@H]2C)[C@H](O)[C@@H](C)[C@@H]2C=CC(=O)[C@]21C [NSC176503]	99.27
O=C(O)c1ccc(O)c(O)c1 [NSC16631]	69.74
C[C@]12CC[C@@H]3c4ccc(O)cc4CC[C@H]3[C@@H]1CCC2=O [NSC9699]	98.84
COC1=C2CC(C)CC(OC)C(O)C(C)/C=C(\C)C(OC(N)=O)C(OC)/C=C\C=C(/C)C(=O)NC(=C(/C=N/N3CCOCC3)C1=O)C2=O (stereo not shown) [NSC255112]	78.82
CC(=O)Oc1ccc2ccc(=O)oc2c1OC(C)=O [NSC301683]	152.96
CN(C)c1ccc2c(SCC(=O)OCC(=O)[C@@]3(O)CC[C@H]4[C@@H]5CCC6=CC(=O)C=C[C@]6(C)[C@H]5C(=O)C[C@@]43C)c3ccc(N(C)C)cc3nc2c1 [NSC337851]	15.16

Same assay, conditions: screen, single dose 100 µM, single replicate; residual AlphaLISA signal normalized to DMSO control; listed as 1115

SMILES	IN-GCN2 interaction (%)
O=C(O)C1(O)C[C@@H](O)C(O)[C@H](O)C1 (stereo partly shown) [NSC1115]	83.40

Same assay, conditions: screen, single dose 100 µM, single replicate; residual AlphaLISA signal normalized to DMSO control; listed as 18805

SMILES	IN-GCN2 interaction (%)
CC(C)c1ccc(O)c(=O)cc1 [NSC18805]	75.92

Same assay, conditions: screen, single dose 100 µM, single replicate; residual AlphaLISA signal normalized to DMSO control; listed as 100880

SMILES	IN-GCN2 interaction (%)
CC[C@@]1(O)C(=O)OCc2c1cc1n(c2=O)Cc2cc3ccccc3nc2-1 [NSC100880]	95.24

Same assay, conditions: screen, single dose 100 µM, single replicate; residual AlphaLISA signal normalized to DMSO control; listed as 785181

SMILES	IN-GCN2 interaction (%)
COc1c(O)ccc2c1-c1c3c(cc4c1[C@H](C2)N(C)CC4)OCO3 [NSC785181]	54.07
